Patent US9481870B2, “Nucleic acid encoding a polypeptide having aminotransferase activity, vectors and host cells comprising the nucleic acid” (KANEKA CORPORATION, priority 2010, dated 2016)

Experiments:
Assay type in all cases: biochemical, Pseudomonas sp. MV37
purified TPM [1] = experiment: Specificity 2 to amino group donor: typical substrates of ω-amino acid transaminase (Example 11); conditions: pyruvic acid 14 mM; for activity of TPM for the amino group donor: amino compound 14 mM, pH 7.5; for Relative activity (%): amino group donor 14 mM, pH 7.5, 30° C., 1 hour, (S)-1-phenethylamine = 100
Description: (§1) Specifically, first, a purified polypeptide is added to a substrate solution with the following composition so that the volume thereof is 400 μl. After 1 hour of reaction at 30° C., 20 μl of 3N hydrochloric acid is added to stop the reaction. Next, 80 μl of a 0.2 M aqueous sodium carbonate solution and 200 μl of an acetone solution of 3.3 mg/mL Dabsyl chloride are separately added to 20 μl of the thus obtained reaction solution, followed by 10 minutes of reaction at 70° C. Acetic acid (20 μl) is added to the reaction solution and then the solution is stirred. The reaction solution is analyzed by HPLC under the following conditions, and then the quantity of dabsylated alanine is determined. In addition, the concentration of a purified polypeptide to be used herein is adjusted so that the amount of alanine generated is 2.8 mM or less as determined by the determination method (hereinafter, referred to as activity assay B).
The purified TPM obtained in Example 7 was examined to determine its reactivity to typical substrates of ω-amino acid transaminase. First, 20 μL of a purified TPM solution was added to 380 μL of a substrate solution with the composition given below. After 1 hour of reaction at 30° C., 20 μL of 3 N hydrochloric acid was added to stop the reaction. Next, 80 μL of a 0.2 M aqueous sodium carbonate solution and 200 μL of an acetone solution of 3.3 mg/mL Dabsyl chloride were separately added to 20 μL of the thus obtained reaction solution, followed by 10 minutes of reaction at 70° C. 20 μL of acetic acid was added to the solution and then it was stirred. The reaction solution was analyzed by HPLC under the following conditions, and thus the quantity of dabsylated alanine was determined.
(§2) [High Performance Liquid Chromatography (HPLC) Analysis Conditions] • Column: Deverosil ODS-HG-3 (NOMURA CHEMICAL) • Eluent: acetonitrile/0.045 M acetate buffer (pH4.1)=35/65 (volume ratio) • Flow rate: 0.9 mL/minute • Detection: 254 nm

purified TPM [2] = experiment: Specificity to amino group receptor (Example 12); conditions: (S)-1-phenethylamine 25 mM, pH 7.0, 30° C., 5 minutes
Description: A substrate solution was added to the purified TPM solution, so that the final concentrations of the components would be as follows. After 5 minutes of reaction at 30° C., 6N hydrochloric acid was added in an amount of 50 μL per mL of the reaction solution, so as to stop the reaction. The reaction solution was analyzed by HPLC under the following conditions.
[High Performance Liquid Chromatography (HPLC) Analysis Conditions] • Column: Wakosil-II 5C18 RS (Wako Pure Chemical Industries, Ltd.) • Eluent: 10 mM potassium phosphate buffer (pH5.3): acetonitrile=3:2 • Flow rate: 1 mL/minute • Detection: 241 nm

purified TPM [3] = experiment: Specificity to amino group donor (dabsylated alanine quantification, Example 10); conditions: pyruvic acid 14 mM, pH 7.5, 30° C., 1 hour; for Relative activity (%): amino group donor 14 mM (28 mM racemic body), n-butylamine = 100%
Description: as §1
The purified TPM obtained in Example 7 was examined to determine its specificity to amino group donors. First, 20 μL of a purified TPM solution was added to 380 μL of a substrate solution with the composition given below. After 1 hour of reaction at 30° C., 20 μL, of 3 N hydrochloric acid was added to stop the reaction. Next, 80 μl of an aqueous 0.2 M sodium carbonate solution and 200 μl of an acetone solution of 3.3 mg/mL Dabsyl chloride were added to 20 μL, of the thus obtained reaction solution, followed by 10 minutes of reaction at 70° C. 20 μL of acetic acid was added to the reaction solution. The reaction solution was stirred and then analyzed by HPLC under the following conditions, and thus the quantity of dabsylated alanine was determined.
as §2

## NCCCC[C@H](N)C(=O)O [L-lysine]
Purified TPM [1]
  activity of TPM for the amino group donor: does not exhibit activity
  Relative activity (%): 0%

## O=CC(=O)O [Glyoxalic acid]
Purified TPM [2]; substrate concentration 25 mM
  Relative activity (%): 40%

## NCCCC(=O)O [4-aminobutyric acid]
Purified TPM [1]
  activity of TPM for the amino group donor: does not exhibit activity
  Relative activity (%): 0%

## CCOC(=O)CC(=O)c1ccccc1 [Benzoylacetic acid ethyl]
Purified TPM [2]; substrate concentration 2.5 mM
  Relative activity (%): 13%

## CC(=O)CCc1ccccc1 [Benzylacetone]
Purified TPM [2]; substrate concentration 2.5 mM
  Relative activity (%): 12%

## O=C1CCN(Cc2ccccc2)C1 [1-benzyl-3-pyrrolidinone]
Purified TPM [2]; substrate concentration 2.5 mM
  Relative activity (%): 4.7%

## NCc1ccccc1 [benzylamine]
Purified TPM [3]
  Relative activity (%): 95%
  activity of TPM for the amino group donor: exhibits its activity

## NCCC(=O)O [β-alanine]
Purified TPM [1]
  activity of TPM for the amino group donor: does not exhibit activity
  Relative activity (%): 0%

## NCCCCN [Putrescine]
Purified TPM [1]
  activity of TPM for the amino group donor: does not exhibit activity
  Relative activity (%): 0%

## O=C1CCc2ccccc2C1 [2-tetralone]
Purified TPM [2]; substrate concentration 2.5 mM
  Relative activity (%): 17%

## CC(=O)c1ccccn1 [2-acetylpyridine]
Purified TPM [2]; substrate concentration 2.5 mM
  Relative activity (%): 16%

## O=C(O)CCC(=O)C(=O)O [2-ketoglutaric acid]
Purified TPM [2]; substrate concentration 25 mM
  Relative activity (%): 0%

## CCC(C)N (racemic) [±2-butylamine]
Purified TPM [3]
  Relative activity (%): 67%
  activity of TPM for the amino group donor: exhibits its activity

## C[C@H](N)c1ccccc1 [(S)-α-phenethylamine]
Purified TPM [1]
  Relative activity (%): 100%

## CC(=O)c1cnccn1 [Acetylpyrazine]
Purified TPM [2]; substrate concentration 2.5 mM
  Relative activity (%): 23%

## O=C(Cc1ccccc1)c1ccccc1 [Benzyl phenyl ketone]
Purified TPM [2]; substrate concentration 2.5 mM
  Relative activity (%): 3.8%

## CCCC=O [Butylaldehyde]
Purified TPM [2]; substrate concentration 2.5 mM
  Relative activity (%): 7%

## CCCCCC(C)=O [2-heptanone]
Purified TPM [2]; substrate concentration 2.5 mM
  Relative activity (%): 4.6%

## CC(=O)C(=O)O [Pyruvic acid]
Purified TPM [2]; substrate concentration 25 mM
  Relative activity (%): 100%

## CCCCN [n-butylamine]
Purified TPM [3]
  Relative activity (%): 100%
  activity of TPM for the amino group donor: exhibits its activity

## NCCS(=O)(=O)O [Taurine]
Purified TPM [1]
  activity of TPM for the amino group donor: does not exhibit activity
  Relative activity (%): 0%
